{"source": "the supplement of paper PMC10307832", "assay_in_all_cases": "relative viability (nuclei count vs DMSO), 5 days (fraction); higher = more cells survive", "key": {"NCI-H520": {"test_system": "NCI-H520", "method_in_brief": "(§1)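 Medians of duplicate plates are given as relative viability. That measure is the nuclei count in treated wells divided by the count in vehicle wells. Counts were taken on 4× images of lung cancer cell lines in 1536-well plates, 5 days after pin-tool dosing the day after seeding with one drug alone or a fixed anchor-drug dose plus five library-drug doses (not always all listed) in √10 steps.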"}, "NCI-H838": {"test_system": "NCI-H838", "method_in_brief": "as §1"}, "IA-LM": {"test_system": "IA-LM", "method_in_brief": "as §1"}, "Calu-6": {"test_system": "Calu-6", "method_in_brief": "as §1"}, "A549": {"test_system": "A549", "method_in_brief": "as §1"}, "NCI-H1299": {"test_system": "NCI-H1299", "method_in_brief": "as §1"}, "RERF-LC-KJ": {"test_system": "RERF-LC-KJ", "method_in_brief": "as §1"}, "NCI-H650": {"test_system": "NCI-H650", "method_in_brief": "as §1"}, "NCI-H1651": {"test_system": "NCI-H1651", "method_in_brief": "as §1"}, "EBC-1": {"test_system": "EBC-1", "method_in_brief": "as §1"}, "NCI-H1944": {"test_system": "NCI-H1944", "method_in_brief": "as §1"}, "NCI-H1703": {"test_system": "NCI-H1703", "method_in_brief": "as §1"}}, "data": [{"molecule": "O=c1cc(N2CCOCC2)oc2c(-c3cccc4c3sc3ccccc34)cccc12", "note": "+ C[C@]1(O)C[C@@H](c2nc(-c3ccc4ccc(-c5ccccc5)nc4c3)c3c(N)nccn32)C1 [Linsitinib] (partner 1 µM)", "values": [{"measurement": "relative viability", "setting": "NCI-H520; first compound 0.01 µM", "value": 1.02}, {"measurement": "relative viability", "setting": "NCI-H520; first compound 0.03162 µM", "value": 1.01}, {"measurement": "relative viability", "setting": "NCI-H520; first compound 0.1 µM", "value": 1.22}, {"measurement": "relative viability", "setting": "NCI-H520; first compound 0.3162 µM", "value": 0.923}, {"measurement": "relative viability", "setting": "NCI-H520; first compound 1 µM", "value": 0.876}, {"measurement": "relative viability", "setting": "NCI-H838; first compound 0.01 µM", "value": 1.05}, {"measurement": "relative viability", "setting": "NCI-H838; first compound 0.03162 µM", "value": 1.03}, {"measurement": "relative viability", "setting": "NCI-H838; first compound 0.1 µM", "value": 0.951}, {"measurement": "relative viability", "setting": "NCI-H838; first compound 0.3162 µM", "value": 0.931}, {"measurement": "relative viability", "setting": "NCI-H838; first compound 1 µM", "value": 0.916}, {"measurement": "relative viability", "setting": "IA-LM; first compound 0.01 µM", "value": 0.667}, {"measurement": "relative viability", "setting": "IA-LM; first compound 0.03162 µM", "value": 0.684}, {"measurement": "relative viability", "setting": "IA-LM; first compound 0.1 µM", "value": 0.698}, {"measurement": "relative viability", "setting": "IA-LM; first compound 0.3162 µM", "value": 0.506}, {"measurement": "relative viability", "setting": "IA-LM; first compound 1 µM", "value": 0.589}, {"measurement": "relative viability", "setting": "Calu-6; first compound 0.01 µM", "value": 0.963}, {"measurement": "relative viability", "setting": "Calu-6; first compound 0.03162 µM", "value": 0.935}, {"measurement": "relative viability", "setting": "Calu-6; first compound 0.1 µM", "value": 1.06}, {"measurement": "relative viability", "setting": "Calu-6; first compound 0.3162 µM", "value": 0.944}, {"measurement": "relative viability", "setting": "Calu-6; first compound 1 µM", "value": 0.983}, {"measurement": "relative viability", "setting": "A549; first compound 0.01 µM", "value": 0.568}, {"measurement": "relative viability", "setting": "A549; first compound 0.03162 µM", "value": 0.613}, {"measurement": "relative viability", "setting": "A549; first compound 0.1 µM", "value": 0.577}, {"measurement": "relative viability", "setting": "A549; first compound 0.3162 µM", "value": 0.663}, {"measurement": "relative viability", "setting": "A549; first compound 1 µM", "value": 0.592}, {"measurement": "relative viability", "setting": "NCI-H1299; first compound 0.01 µM", "value": 0.972}, {"measurement": "relative viability", "setting": "NCI-H1299; first compound 0.03162 µM", "value": 0.937}, {"measurement": "relative viability", "setting": "NCI-H1299; first compound 0.1 µM", "value": 0.945}, {"measurement": "relative viability", "setting": "NCI-H1299; first compound 0.3162 µM", "value": 1.01}, {"measurement": "relative viability", "setting": "NCI-H1299; first compound 1 µM", "value": 0.995}, {"measurement": "relative viability", "setting": "RERF-LC-KJ; first compound 0.01 µM", "value": 0.908}, {"measurement": "relative viability", "setting": "RERF-LC-KJ; first compound 0.03162 µM", "value": 0.937}, {"measurement": "relative viability", "setting": "RERF-LC-KJ; first compound 0.1 µM", "value": 0.914}, {"measurement": "relative viability", "setting": "RERF-LC-KJ; first compound 0.3162 µM", "value": 0.869}, {"measurement": "relative viability", "setting": "RERF-LC-KJ; first compound 1 µM", "value": 0.874}, {"measurement": "relative viability", "setting": "NCI-H650; first compound 0.01 µM", "value": 0.794}, {"measurement": "relative viability", "setting": "NCI-H650; first compound 0.03162 µM", "value": 1.03}, {"measurement": "relative viability", "setting": "NCI-H650; first compound 0.3162 µM", "value": 1.14}, {"measurement": "relative viability", "setting": "NCI-H650; first compound 1 µM", "value": 0.679}, {"measurement": "relative viability", "setting": "NCI-H1651; first compound 0.01 µM", "value": 1.1}, {"measurement": "relative viability", "setting": "NCI-H1651; first compound 0.03162 µM", "value": 1.07}, {"measurement": "relative viability", "setting": "NCI-H1651; first compound 0.1 µM", "value": 1.02}, {"measurement": "relative viability", "setting": "NCI-H1651; first compound 0.3162 µM", "value": 1.05}, {"measurement": "relative viability", "setting": "NCI-H1651; first compound 1 µM", "value": 0.912}, {"measurement": "relative viability", "setting": "EBC-1; first compound 0.01 µM", "value": 0.973}, {"measurement": "relative viability", "setting": "EBC-1; first compound 0.03162 µM", "value": 0.942}, {"measurement": "relative viability", "setting": "EBC-1; first compound 0.1 µM", "value": 0.835}, {"measurement": "relative viability", "setting": "EBC-1; first compound 0.3162 µM", "value": 1.06}, {"measurement": "relative viability", "setting": "EBC-1; first compound 1 µM", "value": 0.993}, {"measurement": "relative viability", "setting": "NCI-H1944; first compound 0.01 µM", "value": 1.16}, {"measurement": "relative viability", "setting": "NCI-H1944; first compound 0.03162 µM", "value": 1.19}, {"measurement": "relative viability", "setting": "NCI-H1944; first compound 0.1 µM", "value": 1.19}, {"measurement": "relative viability", "setting": "NCI-H1944; first compound 0.3162 µM", "value": 1.33}, {"measurement": "relative viability", "setting": "NCI-H1944; first compound 1 µM", "value": 1.16}, {"measurement": "relative viability", "setting": "NCI-H1703; first compound 0.01 µM", "value": 0.786}, {"measurement": "relative viability", "setting": "NCI-H1703; first compound 0.03162 µM", "value": 0.991}, {"measurement": "relative viability", "setting": "NCI-H1703; first compound 0.1 µM", "value": 0.684}, {"measurement": "relative viability", "setting": "NCI-H1703; first compound 0.3162 µM", "value": 0.641}, {"measurement": "relative viability", "setting": "NCI-H1703; first compound 1 µM", "value": 0.919}]}]}
